Results from patent US8841321B2, “Quinoline derivatives as antibacterial agents” (Janssen Pharmaceutica NV, priority 2005, dated 2014).
≈ marks a conversion by molar mass, not a printed value.

Legend:
Test in all cases: Microtitre plate assay, IC90 determination
Assay type in all cases: cell-based
[1] = test system: SPN 6305 (Streptococcus pneumoniae (ATCC6305)); conditions: for IC90 (μg/ml) SPN 6305: Streptococcus pneumoniae (ATCC6305); for IC90: Streptococcus pneumoniae, ATCC6305, Streptococcus pneumoniae (ATCC6305), read-out: IC90 (μg/ml) SPN 6305
Method in brief: (§1)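 Growth-inhibition endpoint: resazurin added 3 h after inoculation, plates incubated overnight, fluorescence at 530/590 nm after 24 h at 37 °C. Inocula of roughly 10–60 CFU per well in Mueller-Hinton medium; compounds titrated five-fold. IC90 reported as μg/ml.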

[2] = test system: STA 29213 (Staphylococcus aureus (ATCC29213)); conditions: for IC90: Staphylococcus aureus, ATCC29213, Staphylococcus aureus (ATCC29213), read-out: IC90 (μg/ml) STA 29213; for IC90 (μg/ml) STA 29213: Staphylococcus aureus (ATCC29213)
Method in brief: as §1

[3] = test system: BSU 43639 (Bacillus subtilis (ATCC43639)); conditions: for IC90 (μg/ml) BSU 43639: Bacillus subtilis (ATCC43639); for IC90: Bacillus subtilis, ATCC43639, Bacillus subtilis (ATCC43639), read-out: IC90 (μg/ml) BSU 43639
[4] = test system: EFA 29212 (Enterococcus faecalis (ATCC29212)); conditions: for IC90: Enterococcus faecalis, ATCC29212, Enterococcus faecalis (ATCC29212), read-out: IC90 (μg/ml) EFA 29212; for IC90 (μg/ml) EFA 29212: Enterococcus faecalis (ATCC29212)
[5] = test system: LMO 49594 (Listeria monocytogenes (ATCC49594)); conditions: for IC90 (μg/ml) LMO 49594: Listeria monocytogenes (ATCC49594); for IC90: Listeria monocytogenes, ATCC49594, Listeria monocytogenes (ATCC49594), read-out: IC90 (μg/ml) LMO 49594
[6] = test system: PAE 27853 (Pseudomonas aeruginosa (ATCC27853)); conditions: for IC90: Pseudomonas aeruginosa, ATCC27853, Pseudomonas aeruginosa (ATCC27853), read-out: IC90 (μg/ml) PAE 27853; for IC90 (μg/ml) PAE 27853: Pseudomonas aeruginosa (ATCC27853)
[7] = test system: SPY 8668 (Streptococcus pyogens (ATCC8668)); conditions: for IC90 (μg/ml) SPY 8668: Streptococcus pyogens (ATCC8668); for IC90: Streptococcus, ATCC8668, Streptococcus pyogens (ATCC8668), read-out: IC90 (μg/ml) SPY 8668
[8] = test system: STA 25923 (Staphylococcus aureus (ATCC25923)); conditions: for IC90 (μg/ml) STA 25923: Staphylococcus aureus (ATCC25923); for IC90: Staphylococcus aureus, ATCC25923, Staphylococcus aureus (ATCC25923), read-out: IC90 (μg/ml) STA 25923
[9] = test system: STA RMETH (methicilline resistant Staphylococcus aureus (MRSA), a clinical isolate from the University of Antwerp); conditions: for IC90: Staphylococcus aureus, MRSA, read-out: IC90 (μg/ml) STA RMETH

Structure (SMILES) | IC90 (μg/ml) SPN 6305 [1] [µg/mL] | IC90 [2] [µg/mL] | IC90 (μg/ml) BSU 43639 [3] [µg/mL] | IC90 [4] [µg/mL] | IC90 (μg/ml) LMO 49594 [5] [µg/mL] | IC90 [6] [µg/mL] | IC90 (μg/ml) SPY 8668 [7] [µg/mL] | IC90 (μg/ml) STA 25923 [8] [µg/mL] | IC90 (μg/ml) STA RMETH [9] [µg/mL] | IC90 (μg/ml) STA 29213 [2] [µg/mL] | IC90 (μg/ml) EFA 29212 [4] [µg/mL] | IC90 (μg/ml) PAE 27853 [6] [µg/mL] | IC90 [1] [µg/mL] | IC90 [3] [µg/mL] | IC90 [5] [µg/mL] | IC90 [7] [µg/mL] | IC90 [8] [µg/mL] | IC90 [9] [µg/mL]
COc1nc2ccc(Br)cc2cc1C(c1ccccc1)C(O)(CCCN(C)C)c1ccc2ccccc2c1 (stereo not drawn) [Compound 46] | 57.0 (≈ 100 µM) | 57 (≈ 100 µM) | 57.0 (≈ 100 µM) | 50.8 (≈ 89.2 µM) | 45.2 (≈ 79.4 µM) | 12.8 (≈ 22.5 µM) | 50.8 (≈ 89.2 µM) | 50.8 (≈ 89.2 µM) | 50.8 (≈ 89.2 µM) | – | – | – | – | – | – | – | – | –
COc1nc2ccc(Br)cc2cc1C(c1ccccc1)C(O)(CCCCN(C)C)c1ccc2ccccc2c1 (stereo not drawn) [Compound 23] | 11.6 (≈ 19.9 µM) | – | 58.4 (≈ 100 µM) | – | 36.8 (≈ 63.1 µM) | – | 46.4 (≈ 79.5 µM) | 58.4 (≈ 100 µM) | 58.4 (≈ 100 µM) | 1.9 (≈ 3.26 µM) | 4.1 (≈ 7.03 µM) | 1.9 (≈ 3.26 µM) | – | – | – | – | – | –
COc1nc2ccc(Br)cc2cc1C(c1ccccc1)C(O)(CCCN1CCCC1)c1ccc2ccccc2c1 (racemic) [Compound 48] | 59.6 (≈ 100 µM) | – | 59.6 (≈ 100 µM) | – | 23.7 (≈ 39.8 µM) | – | 47.3 (≈ 79.4 µM) | 9.4 (≈ 15.8 µM) | 9.4 (≈ 15.8 µM) | 47.3 (≈ 79.4 µM) | 59.6 (≈ 100 µM) | 47.3 (≈ 79.4 µM) | – | – | – | – | – | –
COc1nc2ccc(Br)cc2cc1C(c1ccccc1)C(O)(CCCCN(C)C)c1cccc2ccccc12 (stereo not drawn) [Compound 19] | – | 14.7 (≈ 25.2 µM) | – | 14.7 (≈ 25.2 µM) | – | 14.7 (≈ 25.2 µM) | – | – | – | – | – | – | 14.7 (≈ 25.2 µM) | 14.7 (≈ 25.2 µM) | 11.6 (≈ 19.9 µM) | 14.7 (≈ 25.2 µM) | 14.7 (≈ 25.2 µM) | 14.7 (≈ 25.2 µM)
COc1nc2ccc(Br)cc2cc1C(c1ccccc1)C(O)(CCCCN(C)C)c1ccc2ccccc2c1 (stereo not drawn) [Compound 25] | 2.3 (≈ 3.94 µM) | – | 58.4 (≈ 100 µM) | – | 9.3 (≈ 15.9 µM) | – | 9.3 (≈ 15.9 µM) | 58.4 (≈ 100 µM) | 58.4 (≈ 100 µM) | 1.9 (≈ 3.26 µM) | 4.1 (≈ 7.03 µM) | 1.9 (≈ 3.26 µM) | – | – | – | – | – | –
COc1nc2ccc(Br)cc2cc1C(c1ccccc1)C(O)(CCCCN(C)C)c1ccc2ccccc2c1 (stereo not drawn) [Compound 24] | 1.9 (≈ 3.26 µM) | – | 1.9 (≈ 3.26 µM) | – | 1.9 (≈ 3.26 µM) | – | 1.9 (≈ 3.26 µM) | 0.5 (≈ 0.857 µM) | 1.9 (≈ 3.26 µM) | 1.9 (≈ 3.26 µM) | 1.9 (≈ 3.26 µM) | 1.9 (≈ 3.26 µM) | – | – | – | – | – | –
CCN(CC)CCCC(O)(c1ccc2ccccc2c1)C(c1ccccc1)c1cc2cc(Br)ccc2nc1OC (stereo not drawn) [Compound 51] | 11.9 (≈ 19.9 µM) | – | – | 59.8 (≈ 100 µM) | – | – | – | – | – | 59.8 (≈ 100 µM) | – | 47.5 (≈ 79.5 µM) | – | 15 (≈ 25.1 µM) | 15 (≈ 25.1 µM) | 13.4 (≈ 22.4 µM) | 15 (≈ 25.1 µM) | 15 (≈ 25.1 µM)
COc1ccc2cc(C(O)(CCCCN(C)C)C(c3ccccc3)c3cc4c(Br)cccc4nc3OC)ccc2c1 (stereo not drawn) [Compound 27] | 61.4 (≈ 100 µM) | 1.9 (≈ 3.1 µM) | – | – | – | – | 48.7 (≈ 79.4 µM) | – | 61.4 (≈ 100 µM) | – | 61.4 (≈ 100 µM) | 9.7 (≈ 15.8 µM) | – | 48.7 (≈ 79.4 µM) | 61.4 (≈ 100 µM) | – | 61.4 (≈ 100 µM) | –
CCN(CC)CCCC(O)(c1ccc2ccccc2c1)C(c1ccccc1)c1cc2cc(Br)ccc2nc1OC (stereo not drawn) [Compound 52] | 2.4 (≈ 4.02 µM) | – | 15.0 (≈ 25.1 µM) | – | 15.0 (≈ 25.1 µM) | – | 11.9 (≈ 19.9 µM) | 15.0 (≈ 25.1 µM) | 15.0 (≈ 25.1 µM) | 15.0 (≈ 25.1 µM) | 47.5 (≈ 79.5 µM) | 11.9 (≈ 19.9 µM) | – | – | – | – | – | –
COc1ccc2cc(C(O)(CCCCN(C)C)C(c3ccccc3)c3cc4ccc(Br)cc4nc3OC)ccc2c1 (stereo not drawn) [Compound 31] | 9.7 (≈ 15.8 µM) | – | – | 10.9 (≈ 17.8 µM) | – | 1.9 (≈ 3.1 µM) | – | – | – | 1.9 (≈ 3.1 µM) | – | – | – | 9.7 (≈ 15.8 µM) | 4.3 (≈ 7.01 µM) | 4.3 (≈ 7.01 µM) | 12.2 (≈ 19.9 µM) | 4.3 (≈ 7.01 µM)
COc1nc2ccc(Br)cc2cc1C(c1ccccc1)C(O)(CCCN(C)C)c1ccccc1 (stereo not drawn) [Compound 44] | 11.6 (≈ 22.3 µM) | – | – | 26 (≈ 50 µM) | 13.1 (≈ 25.2 µM) | – | 9.2 (≈ 17.7 µM) | 13.1 (≈ 25.2 µM) | 13.1 (≈ 25.2 µM) | 10.4 (≈ 20 µM) | – | 10.4 (≈ 20 µM) | – | 41.3 (≈ 79.5 µM) | – | – | – | –
COc1nc2ccc(Br)cc2cc1C(c1ccccc1)C(O)(CCCN1CCCC1)c1ccc2ccccc2c1 (racemic) [Compound 49] | 11.9 (≈ 20 µM) | – | 59.6 (≈ 100 µM) | – | 47.3 (≈ 79.4 µM) | – | 47.3 (≈ 79.4 µM) | 59.6 (≈ 100 µM) | 59.6 (≈ 100 µM) | 47.3 (≈ 79.4 µM) | 47.3 (≈ 79.4 µM) | 53.1 (≈ 89.2 µM) | – | – | – | – | – | –
COc1nc2ccc(Br)cc2cc1C(c1ccccc1)C(O)(CCCCN(C)C)c1ccccc1 (stereo not drawn) [Compound 21] | 11.9 (≈ 22.3 µM) | – | 10.6 (≈ 19.9 µM) | – | 10.6 (≈ 19.9 µM) | – | 10.6 (≈ 19.9 µM) | 10.6 (≈ 19.9 µM) | 10.6 (≈ 19.9 µM) | 10.6 (≈ 19.9 µM) | 21.2 (≈ 39.7 µM) | 10.6 (≈ 19.9 µM) | – | – | – | – | – | –
COc1nc2ccc(Br)cc2cc1C(c1ccccc1)C(O)(CCCN(C)C)c1ccc2ccccc2c1 (stereo not drawn) [Compound 47] | 5.1 (≈ 8.95 µM) | – | 11.4 (≈ 20 µM) | – | 2.3 (≈ 4.04 µM) | – | 11.4 (≈ 20 µM) | 12.8 (≈ 22.5 µM) | 12.8 (≈ 22.5 µM) | 57.0 (≈ 100 µM) | 25.4 (≈ 44.6 µM) | 10.1 (≈ 17.7 µM) | – | – | – | – | – | –
COc1nc2ccc(Br)cc2cc1C(c1ccccc1)C(O)(CCCCN(C)C)c1ccccc1 (stereo not drawn) [Compound 20] | 2.1 (≈ 3.94 µM) | 10.6 (≈ 19.9 µM) | – | 10.6 (≈ 19.9 µM) | – | 10.6 (≈ 19.9 µM) | 4.2 (≈ 7.87 µM) | – | – | – | – | – | – | 10.6 (≈ 19.9 µM) | 13.4 (≈ 25.1 µM) | – | 10.6 (≈ 19.9 µM) | 10.6 (≈ 19.9 µM)
COc1nc2ccc(Br)cc2cc1C(c1ccccc1)C(O)(CCCN(C)C)c1cccc2ccccc12 (stereo not drawn) [Compound 50] | – | 45.2 (≈ 79.4 µM) | – | 57 (≈ 100 µM) | – | 11.4 (≈ 20 µM) | – | – | – | – | – | – | 14.3 (≈ 25.1 µM) | 14.3 (≈ 25.1 µM) | 14.3 (≈ 25.1 µM) | 11.4 (≈ 20 µM) | 14.3 (≈ 25.1 µM) | 14.3 (≈ 25.1 µM)
COc1nc2ccc(Br)cc2cc1C(c1ccccc1)C(O)(CCCN(C)C)c1ccccc1 (stereo not drawn) [Compound 45] | 52.0 (≈ 100 µM) | – | 52.0 (≈ 100 µM) | – | 41.3 (≈ 79.5 µM) | – | 52.0 (≈ 100 µM) | 41.3 (≈ 79.5 µM) | 41.3 (≈ 79.5 µM) | 41.3 (≈ 79.5 µM) | 52.0 (≈ 100 µM) | 52.0 (≈ 100 µM) | – | – | – | – | – | –
